Reference: article PMC3277506, “Extra-Renal Elimination of Uric Acid via Intestinal Efflux Transporter BCRP/ABCG2” (PLoS ONE, 2012)
Values joined by “and” are separate entries in the source; they are usually repeats but may differ in a detail not shown here. Equal entries are not always repeated.

Key:
hMRP2 = target: T1, hMRP2 (Homo sapiens, UniProt Q92887); test: [14C]uric acid uptake by hMRP2-expressing membrane vesicles; format: biochemical; settings: [14C]uric acid 20 µM, 5 min, 37°C, 4 mM ATP or AMP
T1 construct: purchased GenoMembrane Inc. (Yokohama, Japan); host or cells: Sf9 cells
T1 sequence (Q92887 whole entry): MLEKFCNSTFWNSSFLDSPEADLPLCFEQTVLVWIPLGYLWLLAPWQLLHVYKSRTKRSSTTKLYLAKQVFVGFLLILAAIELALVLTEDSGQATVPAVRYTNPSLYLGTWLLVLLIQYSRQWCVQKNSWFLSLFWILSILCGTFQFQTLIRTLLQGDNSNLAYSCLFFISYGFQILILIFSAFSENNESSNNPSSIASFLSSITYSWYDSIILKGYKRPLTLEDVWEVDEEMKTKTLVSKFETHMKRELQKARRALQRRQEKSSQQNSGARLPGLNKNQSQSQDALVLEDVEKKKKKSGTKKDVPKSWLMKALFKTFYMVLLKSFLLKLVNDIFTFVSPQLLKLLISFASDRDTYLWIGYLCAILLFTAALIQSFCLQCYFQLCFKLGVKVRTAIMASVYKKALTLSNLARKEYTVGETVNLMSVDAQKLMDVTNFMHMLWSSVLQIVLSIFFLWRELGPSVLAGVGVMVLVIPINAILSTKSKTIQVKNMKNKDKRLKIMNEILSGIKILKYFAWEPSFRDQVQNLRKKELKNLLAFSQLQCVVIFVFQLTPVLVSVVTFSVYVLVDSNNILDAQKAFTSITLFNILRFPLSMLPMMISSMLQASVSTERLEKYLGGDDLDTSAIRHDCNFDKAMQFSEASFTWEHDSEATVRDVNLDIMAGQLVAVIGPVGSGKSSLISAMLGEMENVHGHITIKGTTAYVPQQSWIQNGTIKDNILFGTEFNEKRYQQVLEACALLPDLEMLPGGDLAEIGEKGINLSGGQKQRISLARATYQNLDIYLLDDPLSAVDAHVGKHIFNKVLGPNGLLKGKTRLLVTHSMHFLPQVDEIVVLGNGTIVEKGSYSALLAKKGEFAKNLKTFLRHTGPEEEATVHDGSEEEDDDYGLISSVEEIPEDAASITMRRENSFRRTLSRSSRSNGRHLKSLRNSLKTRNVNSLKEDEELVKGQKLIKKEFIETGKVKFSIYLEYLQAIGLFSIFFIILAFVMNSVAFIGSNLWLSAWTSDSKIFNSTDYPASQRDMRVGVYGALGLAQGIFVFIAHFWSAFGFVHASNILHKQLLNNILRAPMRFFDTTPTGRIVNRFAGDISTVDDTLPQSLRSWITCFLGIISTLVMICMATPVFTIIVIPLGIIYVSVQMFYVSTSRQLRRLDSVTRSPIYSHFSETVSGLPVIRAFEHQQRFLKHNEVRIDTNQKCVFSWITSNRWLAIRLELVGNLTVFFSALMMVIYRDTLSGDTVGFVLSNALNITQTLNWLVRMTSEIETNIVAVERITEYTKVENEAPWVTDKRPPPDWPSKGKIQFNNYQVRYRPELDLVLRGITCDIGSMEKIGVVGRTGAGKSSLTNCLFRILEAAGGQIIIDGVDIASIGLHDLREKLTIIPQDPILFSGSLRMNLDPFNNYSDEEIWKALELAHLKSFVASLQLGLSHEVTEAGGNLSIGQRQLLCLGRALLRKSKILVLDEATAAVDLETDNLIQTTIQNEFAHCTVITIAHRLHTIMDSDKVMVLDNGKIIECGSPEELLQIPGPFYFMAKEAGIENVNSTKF
Experimental: (§1) hBCRP/rBcrp, hMRP2/rMrp2, or hMDR1-expressing membrane vesicles prepared from Sf9 cells were purchased from GenoMembrane Inc. (Yokohama, Japan). Uptake experiments were conducted as described previously. Briefly, after a pre-incubation for 5 min at 37°C, membrane vesicles (50 µg protein/50 µL final reaction volume) were incubated for 5 min at 37°C in the presence of 4 mM ATP or AMP in assay buffer (1 M KCl, 1 M MgCl2, and 100 mM MOPS-Tris, pH 7.0) containing [^14C]uric acid (1 µCi/mL). The uptake reaction was terminated by adding 1 mL ice-cold washing buffer (1 M KCl, and 100 mM MOPS-Tris, pH 7.0) to the membrane solution, and the mixture was rapidly filtered through a nitrocellulose filter (0.45 µm pore size, Millipore, Bedford, MA). The filters were washed twice with 5 mL ice-cold washing buffer. The filters were dried and dissolved in Clearsol-I for quantitation of radioactivity.

[1] = Plasma uric acid, intestinal and renal clearance in oxonate-treated wild-type and Bcrp1 knockout mice; format: in vivo; settings: for Intestinal secretory clearance of endogenous uric acid / Renal clearance of endogenous uric acid: oxonate-treated; for Intestinal secretory clearance of endogenous uric acid: ileum closed loop; for Renal clearance of endogenous uric acid: metabolic cages
Experimental: (§2) Male Wistar rats (280±30 g body weight) used in the present study were treated with potassium oxonate, a uric acid oxidase (uricase) inhibitor. Oxonate-treated rats were established as described previously, [48]. Briefly, rats were anesthetized with 50% urethane (2 mL/kg) and infused with 0.9% NaCl, 0.5% oxonate and 4% mannitol solution from the femoral vein at the flow rate of 3 mL/hr. As a bolus, 0.9% NaCl, 1.5% oxonate and 4% mannitol solution was administered from the jugular vein at 6 mL/kg. After equilibration for 80 min, blood, urine and bile samples were collected at 20-min intervals. When [^14C]uric acid (2 µCi/rat) was used, it was intravenously injected from the jugular vein after oxonate treatment for 80 min. In order to suppress the uricolysis of [^14C]uric acid by intestinal flora, animals received orally non-absorbed antibiotics, polymyxin B, kanamycin, and vancomycin at daily doses of 50, 50 and 20 mg/kg, respectively, for 7 days before this animal study. Urine and bile were collected at 20-min intervals, and blood samples were drawn at 1, 5, 10, 20, 40, 60, 80, 100 and 120 min. Urine and bile were collected from bladder and bile ducts, respectively, and blood from the jugular vein. In mice, urine was collected for 24 hours by using metabolic cages (Natsume, Tokyo, Japan).
Mice were treated with oxonate (intraperitoneal injection of 200 mg/kg oxonate in 1% arabic gum solution) at 1 hr before injection of PB solution into the intestinal loop. Blood was withdrawn from the jugular vein at 1, 30 and 60 min. At 60 min, the intestinal luminal content was collected for measurement of intestinally secreted uric acid.
(§3) The following equation was used to calculate intestinal secretory clearance (µL/min/cm loop) and estimated total intestinal secretory clearance (CLintestine, estimated) (mL/min): [drawing 1] [drawing 2] [drawing 3] where A is the amount of uric acid secreted into the intestinal lumen of each loop for 60 min, L is the length of the intestine, and AUC is area under the plasma concentration-time curve.

rMrp2 = target: T2, rMrp2 (Rattus norvegicus, UniProt Q63120); test: [14C]uric acid uptake by rMrp2-expressing membrane vesicles; format: biochemical; settings: [14C]uric acid 20 µM, 5 min, 37°C, 4 mM ATP or AMP
T2 construct: purchased GenoMembrane Inc. (Yokohama, Japan); host or cells: Sf9 cells
T2 sequence (Q63120 whole entry): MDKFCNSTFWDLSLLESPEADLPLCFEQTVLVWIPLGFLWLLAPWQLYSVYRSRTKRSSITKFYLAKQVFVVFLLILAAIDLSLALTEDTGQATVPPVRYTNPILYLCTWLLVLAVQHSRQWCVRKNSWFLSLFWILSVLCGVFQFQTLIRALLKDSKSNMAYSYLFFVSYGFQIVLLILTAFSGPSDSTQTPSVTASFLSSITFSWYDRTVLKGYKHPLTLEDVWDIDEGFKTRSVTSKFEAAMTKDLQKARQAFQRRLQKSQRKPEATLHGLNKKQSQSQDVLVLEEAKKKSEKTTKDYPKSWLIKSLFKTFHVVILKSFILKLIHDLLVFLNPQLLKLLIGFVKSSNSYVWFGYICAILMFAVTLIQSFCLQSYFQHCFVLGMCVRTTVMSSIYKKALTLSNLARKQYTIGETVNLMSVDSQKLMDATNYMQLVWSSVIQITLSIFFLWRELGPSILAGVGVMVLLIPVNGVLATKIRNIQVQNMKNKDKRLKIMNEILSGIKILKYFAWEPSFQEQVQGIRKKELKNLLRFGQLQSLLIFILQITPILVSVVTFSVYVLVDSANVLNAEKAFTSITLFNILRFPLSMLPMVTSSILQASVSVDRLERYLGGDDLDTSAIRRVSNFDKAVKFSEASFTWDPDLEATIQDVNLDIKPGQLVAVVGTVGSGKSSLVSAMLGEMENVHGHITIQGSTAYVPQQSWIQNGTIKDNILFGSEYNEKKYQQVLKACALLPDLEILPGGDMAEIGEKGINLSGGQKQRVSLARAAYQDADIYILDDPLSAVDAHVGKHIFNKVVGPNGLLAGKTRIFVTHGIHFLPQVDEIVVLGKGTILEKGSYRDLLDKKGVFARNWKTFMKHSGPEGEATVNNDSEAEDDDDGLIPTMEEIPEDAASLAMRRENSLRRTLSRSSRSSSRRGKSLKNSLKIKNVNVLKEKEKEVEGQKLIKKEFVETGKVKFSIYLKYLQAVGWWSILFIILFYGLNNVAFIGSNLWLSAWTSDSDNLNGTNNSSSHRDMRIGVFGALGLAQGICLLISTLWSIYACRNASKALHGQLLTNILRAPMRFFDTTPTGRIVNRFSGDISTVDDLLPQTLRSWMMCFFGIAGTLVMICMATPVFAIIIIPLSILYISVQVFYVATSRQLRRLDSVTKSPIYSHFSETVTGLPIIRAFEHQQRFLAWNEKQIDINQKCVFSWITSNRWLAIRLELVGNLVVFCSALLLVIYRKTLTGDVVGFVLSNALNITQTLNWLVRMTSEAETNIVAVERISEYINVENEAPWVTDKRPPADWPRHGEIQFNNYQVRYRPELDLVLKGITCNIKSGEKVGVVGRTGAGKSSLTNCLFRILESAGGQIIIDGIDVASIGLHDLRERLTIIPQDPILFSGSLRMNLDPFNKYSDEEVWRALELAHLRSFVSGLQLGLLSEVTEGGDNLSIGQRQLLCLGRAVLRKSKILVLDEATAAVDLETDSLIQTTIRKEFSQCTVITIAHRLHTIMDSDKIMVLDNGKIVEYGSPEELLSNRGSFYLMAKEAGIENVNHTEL
Experimental: as §1

[2] = Clearance of endogenous uric acid (urine, bile, estimated intestine) in oxonate-treated rats; format: in vivo, rat
Experimental: as §2, §3
Concentrations of uric acid in plasma, urine, bile, and intestinal content were analyzed by means of HPLC. Briefly, 80 µL 0.41% HClO4 was added to 40 µL of sample and mixed well. The sample was kept 4°C for 30 min. An aliquot was centrifuged at 15,000 rpm for 5 min at 4°C to separate denatured proteins. […] Uric acid was detected at 284 nm. […]

ATP-dependent uric acid uptake (hMRP2): inactive
Intestinal secretory clearance of endogenous uric acid ([1]; Bcrp1−/− mice): 0.61 ± 0.08 µL/min/cm
Renal clearance of endogenous uric acid ([1]; Bcrp1−/− mice): 16.0 ± 1.77 µL/min
Plasma uric acid level in Bcrp1−/− mice compared with wild-type mice ([1]; after oxonate treatment): much higher
Intestinal secretory clearance of endogenous uric acid ([1]; wild-type mice): 1.04 ± 0.11 µL/min/cm
Renal clearance of endogenous uric acid ([1]; wild-type mice): 23.5 ± 1.42 µL/min
ATP-dependent uric acid uptake (rMrp2): Slight
CLintestine, estimated (total intestinal secretory clearance) ([2]; from closed loop clearance and intestinal length): 0.15 mL/min
CL renal ([2]; male, Wistar, rat, urine (relative to plasma AUC), up to 60 min, amount excreted / plasma AUC, read-out: CLrenal of endogenous uric acid): 0.5 ± 0.06 mL/min
CLbile of endogenous uric acid ([2]; up to 60 min, amount excreted / plasma AUC): 0.02 mL/min and 0.02 ± 0.002 mL/min
SMILES: O=c1[nH]c(=O)c2[nH]c(=O)[nH]c2[nH]1 [uric acid]
